Earlier results as cited in patent US12042566B2, “Formulations of homotaurines and salts thereof” (Confluence Pharmaceuticals, LLC, priority 2017, dated 2024).

Key:
[1] = high solubility and low passive permeability
[2] = humans, reportedly

CC(=O)NCCCS(=O)(=O)O [acamprosate, 3-(Acetylamino)propylsulfonic acid]
Biopharmaceutics Classification System (BCS) class [1]: Class III
oral bioavailability [2]: about 11%
